Where two headings read alike, the source gives them in different places. Marks after values point to notes of the source that are not given here.
What was measured:
[1] = test system: T. b. brucei Lab 110 EATRO; experiment: In vitro trypanocidal activity, bloodforms in HMI-18 medium, Coulter counts; format: cell-based, Trypanosoma brucei brucei; conditions: read-out: Lab 100 EATRO IC50
Procedure: (§1) The compounds were tested against trypanosome isolates grown as blood forms in HMI-18 medium containing 20% horse serum in 24 well microplates at 37° C. in 5% CO2. Wells were inoculated with 1×10^5 trypanosomes. […] One-half the volume was replaced daily. Cell counts were made daily with a Coulter Counter, Model Z1 (Beckman Coulter, Miami, Fla., USA). Cells were diluted with Isoton I buffer (Beckman Coulter) and the aperture was standardized at 5.14 μm. Background checks were performed daily on 1:10 dilutions of medium. Counts, normalization, and coincident counts were accounted for by the standardized Coulter analysis program. Occasionally, hemocytometer counts were performed as a check on the validity of the Coulter program. IC50 values were determined after 48 h from semi-log plots and the values are the result of duplicate determinations. Initially a broad concentration curve was used and then a close concentration curve from which IC50 values were determined. Assays were done in duplicate and each point was the average of the two. Control cells grew to 5×10^6/ml.
(§2) Coulter counts were made daily and IC50 values determined after 48 hours exposure.

[2] = test system: T. b. rhodesiense KETRI 243; experiment: as above; format: cell-based, Trypanosoma brucei rhodesiense; conditions: 48 h exposure
Procedure: as §1, §2

[3] = test system: T. b. brucei Lab 110 EATRO; experiment: In vivo efficacy in infected mice; design: species or system Trypanosoma brucei brucei
Procedure: Female Swiss-Webster mice (weight, 20 g) were infected (intraperitoneally) with 2.5×10^5 trypanosomes from rat blood, and the infection was allowed to develop for 24 h before drug treatment was begun. Groups of three mice each were injected (intraperitoneally) with each drug concentration. All of the experiments included a group of untreated controls. […] Parasitemia of animals dying of infection averaged 0.5-1.0×10^9/mL of blood. These infections are very predictable and daily counts were not done because of the labor involved. […] Animals were monitored weekly for parasites in tail vein blood smears. Mice were considered cured if they survived more than 30 days after the death of the last control with no parasites in tail vein blood smears. MSD (mean survival in days) was also recorded for each group. It is the average time of survival of the animals in the group, exclusive of cured animals.
Mice were infected with 250,000 parasites and dosing commenced 24 h. post infection. Mice were separated into groups of three and given single i.p doses for 3 days unless otherwise noted. Infected untreated controls were used for each experiment. Mice were considered cured if surviving more than 30 days beyond death of controls without parasites in tail vein blood smears. MSD, mean survival in days, exclusive of cured animals.

[4] = test system: T. b. rhodesiense KETRI 2002; experiment: In vivo efficacy in infected mice, clinical isolate; design: species or system Trypanosoma brucei rhodesiense
Procedure: (§3) Female Swiss-Webster mice (weight, 20 g) were infected (intraperitoneally) with 2.5×10^5 trypanosomes from rat blood, and the infection was allowed to develop for 24 h before drug treatment was begun. Groups of three mice each were injected (intraperitoneally) with each drug concentration. All of the experiments included a group of untreated controls. […] Animals were monitored weekly for parasites in tail vein blood smears. Mice were considered cured if they survived more than 30 days after the death of the last control with no parasites in tail vein blood smears. MSD (mean survival in days) was also recorded for each group. It is the average time of survival of the animals in the group, exclusive of cured animals.
(§4) Mice were infected on day 1 with 2.5×10^5 trypanosomes and the infections allowed to progress 24 h. prior to dosing. Animals were dosed 1×/day i.p for 3 days. Cured animals survived >30 days beyond the death of untreated, infected controls. MSD=mean survival in days exclusive of cured animals. Dose as mg/kg/day.

[5] = test system: T. b. rhodesiense KETRI 1992; experiment: as above; design: species or system Trypanosoma brucei rhodesiense
Procedure: as §3, §4

[6] = test system: calf thymus DNA; experiment: Thermal denaturation study, DNA binding affinity (ΔTm); conditions: 1:5 compound to base pair ratio;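 also: shift in midpoint melting temperature of calf thymus DNA thermal denaturation curves caused by compound binding, values averaged over at least two determinations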
Procedure: (§5) The binding affinity was measured by determining the change in the midpoint (Tm) of the thermal denaturation curves of calf thymus DNA as well as poly(dA-dT) at a 1:5 compound to base pair ratio.

[7] = test system: poly(dA-dT); experiment: as above; conditions: 1:5 compound to base pair ratio;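 also: shift in the midpoint temperature of the thermal melting curve of poly(dA-dT), each value the mean of two or more independent determinations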
Procedure: as §5

[8] = test system: T. b. rhodesiense KETRI 2538; experiment: In vivo efficacy in infected mice, clinical isolate; design: species or system Trypanosoma brucei rhodesiense
Procedure: as §3, §4

[9] = mice, 1 mg/kg/day i.p. for 3 days
[10] = mice, 5 mg/kg/day i.p. for 3 days
[11] = mice, 10 mg/kg/day i.p. for 3 days
[12] = mice, 25 mg/kg/day i.p. for 3 days
[13] = KETRI 2002, 1 mg/kg/day i.p. for 3 days
[14] = KETRI 2002, 5 mg/kg/day i.p. for 3 days
[15] = KETRI 2002, 10 mg/kg/day i.p. for 3 days
[16] = KETRI 2002, 25 mg/kg/day i.p. for 3 days
[17] = KETRI 1992, 1 mg/kg/day i.p. for 3 days
[18] = KETRI 1992, 5 mg/kg/day i.p. for 3 days
[19] = KETRI 1992, 10 mg/kg/day i.p. for 3 days
[20] = mice, 15 mg/kg/day i.p. for 3 days
[21] = KETRI 2002, 15 mg/kg/day i.p. for 3 days
[22] = KETRI 1992, 25 mg/kg/day i.p. for 3 days
[23] = mice, 25 mg/kg i.p., single dose (1x)
[24] = KETRI 1992, 15 mg/kg/day i.p. for 3 days

Row | melting point [°C] | SMILES | IC50 ([1]; 48 h exposure, bloodforms) [nM] | IC50 [2] [nM] | MSD [3, 9] [days] | MSD [3, 10] [days] | MSD [3, 11] [days] | MSD [4, 15] [days] | #Cured/Total [5, 18] | MSD [5, 18] [days] | #Cured/Total [5, 19] | MSD [5, 19] [days] | other results
1 | 171 to 173 | CCCCCc1nc(-c2ccc(NC(=O)CCCC(=O)Nc3ccc(-c4noc(CCCCC)n4)cc3)cc2)no1 [TH743, N,N′-Bis[4-(5-Pentyl-1,2,4-oxadiazol-3yl)phenyl]pentanediamide] |  |  |  |  |  |  |  |  |  |  | 
2 |  | N=C(N)c1ccc(NC(=O)CCCCCCC(=O)Nc2ccc(C(=N)N)cc2)cc1 [compound 0705] | 2.8 | 1.45 | 10 | >30 | >30 | >30 | 0/3 | 22.6 | 0/3 | 29.6 | MSD [3, 12]: >30 days; MSD [4, 13]: >30 days; MSD [4, 14]: >30 days; MSD [4, 16]: >30 days; #Cured/Total [5, 17]: 0/3; MSD [5, 17]: 15.3 days
3 | 255 to 257 | O=C(CCCC(=O)Nc1ccc(-c2noc(-c3ccccc3)n2)cc1)Nc1ccc(-c2noc(-c3ccccc3)n2)cc1 [TH747, N,N′-Bis[4-(5-Phenyl-1,2,4-oxadiazol-3yl)phenyl]pentanediamide] |  |  |  |  |  |  |  |  |  |  | 
4 |  | N=C(N)c1ccc(NC(=O)CCCCCC(=O)Nc2ccc(C(=N)N)cc2)cc1 [compound 0706] | 1.62 | 2.05 | >30 | >30 | >30 | >30 | 0/3 | 18.3 | 0/3 | 18.6 | MSD [3, 20]: >30 days; MSD [4, 13]: >30 days; MSD [4, 14]: >30 days; MSD [4, 21]: >30 days; #Cured/Total [5, 17]: 0/3; MSD [5, 17]: 14 days; #Cured/Total [5, 22]: 0/3; MSD [5, 22]: 19.3 days
5 |  | N=C(N)c1ccc(NC(=O)CCCCCCCCC(=O)Nc2ccc(C(=N)N)cc2)cc1 [compound 0709] | 2 | 4.1 | 12 | >30 | >30 | >30 | 0/3 | 13.7 | 0/3 | 15.7 | MSD [3, 12]: >30 days; #Cured/Total [4, 13]: 0/3; MSD [4, 13]: 18 days; MSD [4, 14]: 33 days; MSD [4, 21]: >30 days; MSD [4, 16]: >30 days; #Cured/Total [5, 17]: 0/3; MSD [5, 17]: 12.6 days; #Cured/Total [5, 22]: 0/3; MSD [5, 22]: 26.6 days
6 |  | N=C(N)c1ccc(NC(=O)CCCCC(=O)Nc2ccc(C(=N)N)cc2)cc1 [compound 0702] |  |  | 6.7 | >30 | >30 | >30 | 0/3 | 16.5 | 0/3 | 17.5 | IC50 ([1]; Trypanosoma brucei, 48 h exposure, bloodforms): 2.8 nM; IC50 ([2]; Trypanosoma brucei, RHODESIENSE): 2.45 nM; DNA Binding Δ Tm Calf thymus [6]: 8.7 °C; DNA Binding Δ Tm Poly (dA-dT) [7]: 14.4 °C; # Cured/#Treated (%) [3, 9]: 0/3; MSD [3, 20]: >30 days; # Cured/#Treated (%) [3, 23]: 0/3; MSD [3, 23]: 22 days; MSD ([3]; mice, 25 mg/kg/day i.p., 2 doses (2x)): >30 days; MSD [4, 21]: >30 days; MSD [4, 16]: >30 days; MSD ([8]; KETRI 2538, 5 mg/kg/day i.p. for 3 days): >30 days; MSD ([8]; KETRI 2538, 10 mg/kg/day i.p. for 3 days): >30 days; MSD ([8]; KETRI 2538, 15 mg/kg/day i.p. for 3 days): >30 days; #Cured/Total [5, 24]: 0/3; MSD [5, 24]: 22 days
7 | 253 to 255 | N/C(=N\OC(=O)c1ccccc1)c1ccc(NC(=O)CCCC(=O)Nc2ccc(/C(N)=N/OC(=O)c3ccccc3)cc2)cc1 [TH746, N,N′-Bis[4-(N-Phenylcarbonyloxyamidino)phenyl]pentanediamide] |  |  |  |  |  |  |  |  |  |  | 
8 | 168 to 170 | C=CCCc1nc(-c2ccc(NC(=O)CCCC(=O)Nc3ccc(-c4noc(CCC=C)n4)cc3)cc2)no1 [TH745, N,N′-Bis[4-(5-3,4-Butene-1,2,4-oxadiazol-3yl)phenyl]pentanediamide] |  |  |  |  |  |  |  |  |  |  | 
9 | 182 to 184 | CCCCCC(=O)ONC(=N)c1ccc(NC(=O)CCCC(=O)Nc2ccc(C(=N)NOC(=O)CCCCC)cc2)cc1 [TH742, N,N′-Bis[4-(N-Pentylcarbonyloxyamidino)phenyl]pentanediamide] |  |  |  |  |  |  |  |  |  |  | 
10 | 235 to 237 | Cc1nc(-c2ccc(NC(=O)CCCC(=O)Nc3ccc(-c4noc(C)n4)cc3)cc2)no1 [TH728, N,N′-Bis[4-(5-Methyl-1,2,4-oxadiazol-3yl)phenyl]pentanediamide] |  |  |  |  |  |  |  |  |  |  | 
11 |  | N=C(N)c1ccc(OCc2ccc(COc3ccc(C(=N)N)cc3)cc2)cc1 [compound 0508] | 0.295 | 0.665 |  |  |  |  |  |  |  |  | DNA Binding Δ Tm Calf thymus [6]: 12.5 °C; DNA Binding Δ Tm Poly (dA-dT) [7]: 18.0 °C; # Cured/#Treated (%) ([3]; mice, 1, 2.5, 5, 10, 15, 25 mg/kg/day i.p. for 3 days (all doses failed to cure)): 0/3^a; MSD ([3]; mice, 1, 2.5, 5, 10, 15, 25 mg/kg/day i.p. for 3 days (all doses)): 5 to 17.3 days

Row | SMILES | melting point [°C] | IC50 ([1]; 48 h exposure, bloodforms) [nM] | IC50 [2] [nM] | MSD [3, 9] [days] | MSD [3, 10] [days] | MSD [3, 11] [days] | MSD [4, 15] [days] | #Cured/Total [5, 18] | MSD [5, 18] [days] | #Cured/Total [5, 19] | MSD [5, 19] [days] | other results
12 | CC(=O)O/N=C(\N)c1ccc(NC(=O)CCCC(=O)Nc2ccc(/C(N)=N/OC(C)=O)cc2)cc1 [TH724, N,N′-bis[4-(N-acetoxyamidino)phenyl]pentanediamide] | 225 to 228 |  |  |  |  |  |  |  |  |  |  | 
13 | NNC(=O)c1ccc(N2CCN(c3ccc(C(=O)NN)cc3)CC2)cc1 [compound 0117, 4,4′-(1,4-Piperazinediyl)bisbenzenecarboxhydrazide] | > 300 |  |  |  |  |  |  |  |  |  |  | IC50 ([1]; Trypanosoma brucei, 48 h): 240 nM; DNA Binding Δ Tm Calf thymus [6]: 0.1 °C; DNA Binding Δ Tm Poly (dA-dT) [7]: 0.0 °C

Source: patent US20080139534A1, “Bisbenzamidines and bisbenzamidoximes for the treatment of human African trypanosomiasis” (XAVIER UNIVERSITY OF LOUISIANA, priority 2006, published 2008)
